Test [1] can be described thus: Non-competitive antagonist activity at human CB2R expressed in CHO cell membranes assessed as N-cycloheptyl-1,2-dihydro-1-(4-fluorobenzyl)-6-methyl-2-oxo-5-phenyl-pyridine-3-carboxamide EC50 at 1000 nM preincubated with compound for 30 mins followed by GTPgammaS addition and measured after 90 mins by [35S]GTPgammaS assay (Rvb = 19.4 nM). For orientation: GTPγS is a poorly hydrolysed GTP analogue; its binding reports G protein activation.

A short description of test [2]: Non-competitive antagonist activity at human CB2R expressed in CHO cell membranes assessed as N-cycloheptyl-1,2-dihydro-1-(4-fluorobenzyl)-6-methyl-2-oxo-5-phenyl-pyridine-3-carboxamide EC50 at 300 nM preincubated with compound for 30 mins followed by GTPgammaS addition and measured after 90 mins by [35S]GTPgammaS assay (Rvb = 19.4 nM).
A short description of test [3]: Competitive antagonist activity at human CB2R expressed in CHO cell membranes assessed as rightward shift of N-cycloheptyl-1,2-dihydro-5-bromo-1-(4-fluoro benzyl)-6-methyl-2-oxo-pyridine-3-carboxamide-induced GTPgammaS binding by measuring N-cycloheptyl-1,2-dihydro-5-bromo-1-(4-fluoro benzyl)-6-methyl-2-oxo-pyridine-3-carboxamide EC50 at 100.
A short description of test [4]: Non-competitive antagonist activity at human CB2R expressed in CHO cell membranes assessed as N-cycloheptyl-1,2-dihydro-1-(4-fluorobenzyl)-6-methyl-2-oxo-5-phenyl-pyridine-3-carboxamide EC50 at 100 nM preincubated with compound for 30 mins followed by GTPgammaS addition and measured after 90 mins by [35S]GTPgammaS assay (Rvb = 19.4 nM).
A short description of test [5]: Competitive antagonist activity at human CB2R expressed in CHO cell membranes assessed as rightward shift of N-cycloheptyl-1,2-dihydro-5-bromo-1-(4-fluoro benzyl)-6-methyl-2-oxo-pyridine-3-carboxamide-induced GTPgammaS binding by measuring N-cycloheptyl-1,2-dihydro-5-bromo-1-(4-fluoro benzyl)-6-methyl-2-oxo-pyridine-3-carboxamide EC50 at 300.
Test [6] can be described thus: Competitive antagonist activity at human CB2R expressed in CHO cell membranes assessed as rightward shift of N-cycloheptyl-1,2-dihydro-5-bromo-1-(4-fluoro benzyl)-6-methyl-2-oxo-pyridine-3-carboxamide-induced GTPgammaS binding by measuring N-cycloheptyl-1,2-dihydro-5-bromo-1-(4-fluoro benzyl)-6-methyl-2-oxo-pyridine-3-carboxamide EC50 at 1000.

By EC50 is commonly meant the concentration needed to bring the measured effect to its halfway point. Regarding `COc1ccc(-c2cc(C(=O)NC3CCCCCC3)c(=O)n(Cc3ccc(F)cc3)c2C)cc1`, the EC50 in test [1] worked out at 103 nM; in test [2], 62 nM; in test [3], 81 nM; in test [4], 102 nM; in test [5], 192 nM; in test [6] it was 711 nM.

The values above are taken from BindingDB's records for doi:10.1016/j.ejmech.2020.112858 (University of Pisa, 2020).
